The values below come from patent publication US7883846B2, “Heterologous stimulus-gated ion channels and methods of using same” (priority 2002, dated 2011).

For one data set, the target named is T1, rat TRPV1 (Rattus norvegicus, UniProt O35433).
T1 construct: expressed in transfected cells; host or cells: dissociated hippocampal neurons from E19 rats, calcium phosphate transfection of pCI-fluor plasmid
The data set is described as follows: Pharmacological stimulation of transfected hippocampal neurons, whole-cell patch clamp (TRPV1). The data set is classed as cell-based. The method, then:
(§1) Three plasmid species were prepared, each species containing a stimulus-gated ion channel (rat TRPV1, rat TRPM8 or rat P2X2) under the control of the CMV promoter in pCI-fluor, a derivative of the mammalian expression vector pCI-neo (Promega). To create pCI-fluor, the aminoglycoside phosphotransferase coding sequence of pCI-neo was replaced with that of EGFP bearing a 20-amino acid N-terminal GAP43 tag (Zemelman, Lee et al. 2002). Rat TRPV1 and rat TRPM8 were expressed as monomers; rat P2X2 subunits were linked into covalent trimers via tandem repeats of the tripeptide -Ser-Gly-Gly-. […]
(§2) Transfected neurons in cultures and infected neurons in brain slices were identified by GAP43-EGFP fluorescence and recorded in the whole-cell patch-clamp configuration. […] Membrane potentials and transmembrane currents were recorded with an Axoclamp-2B amplifier (Axon Instruments) in bridge and continuous single-electrode voltage-clamp mode, respectively, and digitized at 5 kHz without filtering (Digidata 1200, Axon Instruments). […]
(§3) To determine dose-response relationships, the peak amplitudes as well as the integrated charges carried by depolarizing currents at different agonist concentrations were measured under whole-cell voltage clamp, at a constant holding potential of −65 mV.

The test system of data set [1] is hippocampal neurons lacking the cognate exogenous receptor. Kind of data set: Stimulation of hippocampal neurons lacking the cognate exogenous receptor / untransfected neurons. The data set is classed as cell-based, rat. The following applies: 50 nM capsaicin, 100 μM menthol, 50 μM ATP; off-diagonal receptor-agonist combinations.
Data set [2] concerns the target T2, TRPV1 expressed ectopically in nociceptor neurons of C. elegans (Rattus norvegicus, UniProt O35433).
T2 construct: host or cells: transgenic C. elegans nociceptor neurons
The following applies: wild-type animals lack the behavior; cited from earlier work.

The next data set concerns the target T3, TRPV1 (Rattus norvegicus, UniProt O35433).
T3 construct: expressed in transfected cells; host or cells: dissociated hippocampal neurons from E19 rats, calcium phosphate transfection of pCI-fluor plasmid
It is filed as cell-based.

The target in the next data set is T4, rat TRPM8 (Rattus norvegicus, UniProt Q8R455).
T4 construct: expressed in transfected cells; host or cells: dissociated hippocampal neurons from E19 rats, calcium phosphate transfection of pCI-fluor plasmid
Kind of data set: Pharmacological stimulation of transfected hippocampal neurons, whole-cell patch clamp (TRPM8). The data set is classed as cell-based. The method, then: as §1, §2, §3
For orientation: Patch clamp records ionic current or voltage across a cell membrane.

Another data set has as its system rat P2X2. Kind of data set: Pharmacological stimulation of transfected hippocampal neurons, whole-cell patch clamp (P2X2). It is filed as cell-based. As to conditions: 50 μM ATP, 1-ml bolus, whole-cell current clamp, 50 μM AP-5 plus 10 μM CNQX. The method, then: Three plasmid species were prepared, each species containing a stimulus-gated ion channel (rat TRPV1, rat TRPM8 or rat P2X2) under the control of the CMV promoter in pCI-fluor, a derivative of the mammalian expression vector pCI-neo (Promega). To create pCI-fluor, the aminoglycoside phosphotransferase coding sequence of pCI-neo was replaced with that of EGFP bearing a 20-amino acid N-terminal GAP43 tag (Zemelman, Lee et al. 2002). Rat TRPV1 and rat TRPM8 were expressed as monomers; rat P2X2 subunits were linked into covalent trimers via tandem repeats of the tripeptide -Ser-Gly-Gly-.
Hippocampal neurons, obtained from E19 rats and grown in dissociated cultures, were exposed to 4.2 μg cm^−2 of calcium phosphate-precipitated plasmid DNA as described in Example 1 (pH 7.08) for 20 min to allow plasmid uptake. Transfections were performed on day 8 after plating; immunocytochemical analyses and electrophysiological recordings on days 6-10 after transfection. […]
as §2

Another data set has as its system P2X2. The data set is described as follows: Photostimulation of P2X2-expressing neurons with caged agonist. It is filed as cell-based, rat.
[3] abbreviates: 1 mM DMNPE-ATP, 1-s light pulse, mean±s.d., n=16.

Chain of P2X2 (P49653 whole entry): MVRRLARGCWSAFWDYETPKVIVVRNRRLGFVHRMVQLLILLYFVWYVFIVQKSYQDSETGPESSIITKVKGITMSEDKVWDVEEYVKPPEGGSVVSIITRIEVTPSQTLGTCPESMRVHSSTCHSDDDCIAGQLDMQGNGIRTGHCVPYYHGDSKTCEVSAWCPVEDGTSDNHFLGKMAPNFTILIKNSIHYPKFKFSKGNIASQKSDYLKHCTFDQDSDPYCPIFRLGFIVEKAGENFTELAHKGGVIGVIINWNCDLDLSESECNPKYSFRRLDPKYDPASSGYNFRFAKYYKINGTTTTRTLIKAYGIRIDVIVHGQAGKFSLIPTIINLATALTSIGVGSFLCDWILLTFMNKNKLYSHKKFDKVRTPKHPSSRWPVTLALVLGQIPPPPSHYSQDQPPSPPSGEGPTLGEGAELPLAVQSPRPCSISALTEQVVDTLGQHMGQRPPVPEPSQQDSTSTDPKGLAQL
T3 sequence (O35433 whole entry): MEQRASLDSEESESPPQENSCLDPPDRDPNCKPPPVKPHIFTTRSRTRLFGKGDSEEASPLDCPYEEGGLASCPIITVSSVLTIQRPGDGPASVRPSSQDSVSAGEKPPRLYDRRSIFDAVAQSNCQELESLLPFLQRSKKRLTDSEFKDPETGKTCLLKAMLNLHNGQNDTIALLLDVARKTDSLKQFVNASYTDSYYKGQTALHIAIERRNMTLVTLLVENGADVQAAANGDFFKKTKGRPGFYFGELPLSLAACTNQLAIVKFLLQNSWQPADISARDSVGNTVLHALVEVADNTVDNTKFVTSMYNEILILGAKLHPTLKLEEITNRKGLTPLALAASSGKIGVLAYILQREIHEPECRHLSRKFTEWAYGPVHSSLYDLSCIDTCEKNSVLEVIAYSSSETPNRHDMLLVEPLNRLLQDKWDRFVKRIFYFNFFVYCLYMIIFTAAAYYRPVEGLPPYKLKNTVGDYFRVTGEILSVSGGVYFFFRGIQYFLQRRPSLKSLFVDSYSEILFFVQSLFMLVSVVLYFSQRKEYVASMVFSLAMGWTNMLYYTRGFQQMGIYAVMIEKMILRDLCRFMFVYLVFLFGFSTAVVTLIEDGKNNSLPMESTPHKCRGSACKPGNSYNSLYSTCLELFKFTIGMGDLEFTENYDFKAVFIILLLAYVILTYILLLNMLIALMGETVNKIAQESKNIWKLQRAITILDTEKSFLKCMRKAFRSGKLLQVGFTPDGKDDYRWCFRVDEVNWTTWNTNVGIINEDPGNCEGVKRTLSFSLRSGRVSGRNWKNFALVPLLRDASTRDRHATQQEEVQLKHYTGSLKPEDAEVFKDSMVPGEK
T4 sequence (Q8R455 whole entry): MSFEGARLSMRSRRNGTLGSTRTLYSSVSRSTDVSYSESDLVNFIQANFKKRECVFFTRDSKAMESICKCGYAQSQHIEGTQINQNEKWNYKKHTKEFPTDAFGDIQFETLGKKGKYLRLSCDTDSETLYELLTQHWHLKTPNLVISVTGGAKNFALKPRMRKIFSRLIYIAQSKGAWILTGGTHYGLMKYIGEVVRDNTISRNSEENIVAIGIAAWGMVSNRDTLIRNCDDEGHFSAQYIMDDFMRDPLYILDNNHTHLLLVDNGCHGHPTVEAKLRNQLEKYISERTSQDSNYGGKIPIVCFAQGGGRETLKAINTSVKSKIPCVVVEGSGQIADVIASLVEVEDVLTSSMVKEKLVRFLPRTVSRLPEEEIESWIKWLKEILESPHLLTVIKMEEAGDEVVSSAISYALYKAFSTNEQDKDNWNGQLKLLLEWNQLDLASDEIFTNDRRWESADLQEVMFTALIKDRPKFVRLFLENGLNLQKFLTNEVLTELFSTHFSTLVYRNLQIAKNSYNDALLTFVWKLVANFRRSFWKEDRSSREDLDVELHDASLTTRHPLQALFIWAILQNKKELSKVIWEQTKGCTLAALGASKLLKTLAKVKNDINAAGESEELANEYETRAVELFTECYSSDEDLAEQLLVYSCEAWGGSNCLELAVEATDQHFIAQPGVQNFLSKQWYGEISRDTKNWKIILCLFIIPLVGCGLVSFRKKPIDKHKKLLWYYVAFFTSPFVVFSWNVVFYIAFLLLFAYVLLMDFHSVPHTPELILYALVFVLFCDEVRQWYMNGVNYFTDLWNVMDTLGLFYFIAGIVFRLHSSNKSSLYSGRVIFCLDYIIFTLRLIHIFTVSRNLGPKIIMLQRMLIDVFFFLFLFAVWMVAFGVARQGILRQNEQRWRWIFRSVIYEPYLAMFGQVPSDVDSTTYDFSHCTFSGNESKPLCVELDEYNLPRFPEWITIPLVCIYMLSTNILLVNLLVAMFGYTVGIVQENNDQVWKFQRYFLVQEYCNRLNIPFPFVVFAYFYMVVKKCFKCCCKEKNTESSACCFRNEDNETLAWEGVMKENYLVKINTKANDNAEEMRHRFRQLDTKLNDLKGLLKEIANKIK
T1 sequence (O35433 whole entry): as the sequence (O35433 whole entry) above
T2 sequence (O35433 whole entry): as above

As for `COc1cc(CNC(=O)CCCC/C=C/C(C)C)ccc1O` [capsaicin], the “response of membrane potential to a bolus of agonist” value (shortened to “response of membrane potential”) at rat TRPV1 (50 nM capsaicin, 1-ml bolus, whole-cell current clamp, 50 μM AP-5 plus 10 μM CNQX) was “depolarization, spiking, and repolarization”. Besides, the “peak spike rate (firing frequency)” value on rat TRPV1 (current clamp, sliding 200-ms windows, increasing agonist concentration, 382 agonist applications to 60 neurons) is listed as 40 Hz. In data set [1], the “stimulation of hippocampal neurons lacking the cognate exogenous receptor” value is on record as “None of the three agonists, including ATP, was able to stimulate”. Further, the “behavior elicited in C. elegans” value in data set [2] was “avoidance behaviors”.
As for `COc1cc(COC(=O)Oc2ccc(CNC(=O)CCCC/C=C/C(C)C)cc2OC)c([N+](=O)[O-])cc1OC` [DMNB-capsaicin], on TRPV1, the “action potential frequency after light pulse” value is on record as 15-40 Hz, the “biological activity due to chemical or enzymatic decomposition of the caged compound” value was “No trace of biological activity”, the “duration of window of activity” value is given as 2,651±383 ms and the “lag of onset of activity behind optical stimulus” value is 5,035±2,061 ms. For the same compound, at TRPV1, the “membrane potentials and transmembrane conductances in presence of caged ligand without light” value is “unaffected”; the “response on repeated photostimulation of the same neuron” value is recorded as “did not attenuate”.
As for `CC(C)[C@@H]1CC[C@@H](C)C[C@H]1O` [menthol, [1R,2S,5R]-5-methyl-2-[1-methylethyl]cyclo-hexanol], in data set [1], the “stimulation of hippocampal neurons lacking the cognate exogenous receptor” value is listed as “None of the three agonists, including ATP, was able to stimulate”. Besides, the “response of membrane potential” value at rat TRPM8 (100 μM menthol, 1-ml bolus, whole-cell current clamp, 50 μM AP-5 plus 10 μM CNQX) was “depolarization, spiking, and repolarization”. Besides, the EC50 at rat TRPM8 (whole-cell voltage clamp, holding potential −65 mV, results not shown, read-out: half-maximal response) stood at 150 µM.
In the case of `Nc1ncnc2c1ncn2[C@@H]1O[C@H](COP(=O)(O)OP(=O)(O)OP(=O)(O)O)[C@@H](O)[C@H]1O` [ATP], the “response of membrane potential” value in the data set with rat P2X2 was “depolarization, spiking, and repolarization”. Besides, in data set [1], the “stimulation of hippocampal neurons lacking the cognate exogenous receptor” value is given as “None of the three agonists, including ATP, was able to stimulate”.
In the case of “P3-(1-(4,5-dimethoxy-2-nitrophenyl)ethyl) (DMNPE) ester of ATP [DMNPE-ATP]”, in the data set with P2X2 (setting [3]), the “duration of window of activity” value is on record as 2,456±1,273 ms; the “lag period between optical stimulus and window of activity” value is reported as 1,136±96 ms. In the data set on P2X2 (1 mM DMNPE-ATP, whole-cell current- or voltage-clamp), the “membrane potentials and transmembrane conductances in presence of caged ligand without light” value is reported as “unaffected”. The “biological activity due to chemical or enzymatic decomposition of the caged compound” value in the data set with P2X2 (recordings lasting for >30 min, 1 mM) is “No trace of biological activity”.
